Data taken from paper PMC11530593, “Structural mechanism of human HCN1 hyperpolarization-activated channel inhibition by ivabradine” (The Journal of Biological Chemistry, 2024).
Positions count from the first letter of the chain named.

What was measured:
[1] = target: T1, HCN1 mutant F143A (Homo sapiens, UniProt O60741, F143A); assay: Whole-cell patch-clamp, Ih inhibition, HCN1 mutant; type: cell-based
T1 construct: Full-length WT or mutant human HCN1 were cloned into the pcDNA3.1 vector; expressed in transfected cells; host or cells: HeLa cells, pcDNA3.1 vector, transient lipofection
T1 sequence (O60741 1-890 F143A): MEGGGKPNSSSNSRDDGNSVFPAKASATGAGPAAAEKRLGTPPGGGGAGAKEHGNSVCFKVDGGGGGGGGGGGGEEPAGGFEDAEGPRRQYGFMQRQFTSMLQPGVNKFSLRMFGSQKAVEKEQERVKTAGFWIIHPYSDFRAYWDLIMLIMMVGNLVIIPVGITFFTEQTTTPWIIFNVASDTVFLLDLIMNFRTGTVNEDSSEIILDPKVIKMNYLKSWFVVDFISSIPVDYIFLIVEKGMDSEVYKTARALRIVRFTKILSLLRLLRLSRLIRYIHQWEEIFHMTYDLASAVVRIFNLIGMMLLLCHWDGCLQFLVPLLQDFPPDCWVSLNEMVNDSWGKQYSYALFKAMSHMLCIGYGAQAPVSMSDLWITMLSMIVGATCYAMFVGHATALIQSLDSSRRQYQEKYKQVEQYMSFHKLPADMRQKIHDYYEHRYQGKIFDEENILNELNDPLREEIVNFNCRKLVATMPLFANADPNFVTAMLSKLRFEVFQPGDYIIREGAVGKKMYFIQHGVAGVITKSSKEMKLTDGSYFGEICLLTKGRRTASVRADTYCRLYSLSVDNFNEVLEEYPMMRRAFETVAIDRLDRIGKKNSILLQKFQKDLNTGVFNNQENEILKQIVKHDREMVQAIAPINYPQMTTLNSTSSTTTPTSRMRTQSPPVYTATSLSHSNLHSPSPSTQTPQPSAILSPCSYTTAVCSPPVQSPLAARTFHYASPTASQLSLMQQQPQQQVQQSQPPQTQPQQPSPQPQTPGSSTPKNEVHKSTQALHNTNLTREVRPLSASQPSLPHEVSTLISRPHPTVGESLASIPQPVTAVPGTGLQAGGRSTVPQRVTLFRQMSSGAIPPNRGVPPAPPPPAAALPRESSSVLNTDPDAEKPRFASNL
Description: (§1) To elucidate the contribution of these residues to the inhibitory effect of ivabradine, we introduced mutations in ivabradine-interacting residues, converting them into alanines (Fig. 2F).
(§2) Full-length WT or mutant human HCN1 were cloned into the pcDNA3.1 vector for electrophysiological experiments. HeLa cells (from Thermo Fisher Scientific) cultured in Dulbecco's modified Eagle's medium (from Solarbio Life Science) + 10% fetal bovine serum (from ExCell Bio) at 37 °C were transiently transfected using lipofection, and whole-cell patch-clamp recordings were obtained using the Axon 200B amplifier (Molecular Devices) and clampex software (https://www.moleculardevices.com/products/axon-patch-clamp-system/acquisition-and-analysis-software/pclamp-software-suite), 36 to 48 h posttransfection. The extracellular solution contained 110 mM NaCl, 0.5 mM MgCl2, 1.8 mM CaCl2, 5 mM Hepes, 30 mM KCl, and pH was adjusted to 7.4 with NaOH, while the pipette solution contained 130 mM KCl, 10 mM NaCl, 0.5 mM MgCl2, 1 mM EGTA, 5 mM Hepes, and pH was adjusted to 7.4 with KOH. The recordings were performed at room temperature, voltage-clamp mode, and filtered at 1 kHz. The sampling frequency was 10 kHz, and the series resistance was limited to 5 MΩ. To elicit channel currents, step pulses of 3 s duration ranging from −180 mV to −30 mV were applied, followed by a step to −180 mV lasting 1.25 s. The tail currents evoked by the second step were used to determine the voltage-dependent activation curves and calculate the midpoint of activation potential (V1/2). The half maximal inhibitory concentration (IC50) of drugs was determined by recording currents at a pulse of −140 mV and analyzing current amplitudes at varying drug concentrations. The IC50 value was calculated using the Hill equation.

[2] = target: T2, HCN1 mutant F285A (Homo sapiens, UniProt O60741, F285A); assay: Whole-cell patch-clamp, Ih inhibition, HCN1 mutant; type: cell-based; settings: electrophysiological recordings, read-out: IC50 (Fig. 2F)
T2 construct: Full-length WT or mutant human HCN1 were cloned into the pcDNA3.1 vector; expressed in transfected cells; host or cells: HeLa cells, pcDNA3.1 vector, transient lipofection
T2 sequence (O60741 1-890 F285A): T1 sequence (O60741 1-890 F143A) with A143F, F285A
Description: as §1, §2

In the case of `COc1cc2c(cc1OC)CC(=O)N(CCCN(C)C[C@H]1Cc3cc(OC)c(OC)cc31)CC2` [ivabradine], the IC50 ([1]; F143A mutant, electrophysiological recordings, read-out: IC50 (Fig. 2F)) is reported as 32.9 µM, the “change in potency by mutation” value ([1]; F143A versus WT) is reported as “dramatic decrease” and the IC50 [2] is reported as 13.4 µM.
